Reference: patent US9364467B2 (Salix Pharmaceuticals, Ltd, priority 2012, dated 2016)

Tested on: Enterobacteriaceae spp. strains
Experiment: In vitro activity (MIC) against Enterobacteriaceae spp. strains

Measured: MIC

COC1/C=C/O[C@@]2(C)Oc3c(C)c(O)c4c(O)c(c5c(c4c3C2=O)NC2C=C(C)C=CN52)NC(=O)/C(C)=C\C=C\C(C)C(O)C(C)C(O)C(C)C(O)C1C (some centres unmarked) [25-desacetyl rifaximin]
128 µg/mL: Escherichia coli, E. coli 345 | Escherichia coli, E. coli 349 | Escherichia coli, E. coli 351 | Klebsiella aerogenes, E. aerogenes 235 | Klebsiella aerogenes, E. aerogenes 281 | Klebsiella aerogenes, E. aerogenes 290 | Klebsiella aerogenes, E. aerogenes 1023 | Klebsiella aerogenes, E. aerogenes 1031 | Klebsiella oxytoca, K. oxytoca 4 | Klebsiella oxytoca, K. oxytoca 18 | Klebsiella oxytoca, K. oxytoca 479 | Klebsiella oxytoca, K. oxytoca 499 | Klebsiella pneumoniae, K. pneumoniae 17 | Klebsiella pneumoniae, K. pneumoniae 19 | Klebsiella pneumoniae, K. pneumoniae 80 | Klebsiella pneumoniae, K. pneumoniae 91 | Klebsiella pneumoniae, K. pneumoniae 1064 | Morganella morganii, M. morganii 42 | Morganella morganii, M. morganii 48 | Morganella morganii, M. morganii 50 | Morganella morganii, M. morganii 101 | Morganella morganii, M. morganii 105 | Morganella morganii, M. morganii 108 | Morganella morganii, M. morganii 453 | Morganella morganii, M. morganii 461 | Morganella morganii, M. morganii 462 | Morganella morganii, M. morganii 923 | Morganella morganii, M. morganii 932 | Morganella morganii, M. morganii 1006 | Proteus mirabilis, P. mirabilis 465 | Proteus mirabilis, P. mirabilis 466 | Proteus mirabilis, P. mirabilis 469 | Proteus mirabilis, P. mirabilis 470 | Proteus mirabilis, P. mirabilis 472 | Proteus mirabilis, P. mirabilis 473 | Proteus mirabilis, P. mirabilis 477 | Proteus mirabilis, P. mirabilis 479 | Proteus mirabilis, P. mirabilis 489 | Proteus mirabilis, P. mirabilis 928 | Proteus mirabilis, P. mirabilis 972 | Proteus mirabilis, P. mirabilis 983 | Proteus mirabilis, P. mirabilis 987 | Proteus mirabilis, P. mirabilis 988 | Proteus mirabilis, P. mirabilis 990 | Proteus mirabilis, P. mirabilis 991 | Proteus mirabilis, P. mirabilis 993 | Proteus mirabilis, P. mirabilis 995 | Proteus mirabilis, P. mirabilis 996 | Proteus mirabilis, P. mirabilis 997 | Providencia stuartii, P. stuartii 94 | Providencia stuartii, P. stuartii 299 | Providencia stuartii, P. stuartii 301 | Providencia stuartii, P. stuartii 312 | Providencia stuartii, P. stuartii 459 | S. odorifera 59 | Serratia marcescens, S. marcescens 38 | Serratia marcescens, S. marcescens 45 | Serratia marcescens, S. marcescens 59 | Stenotrophomonas maltophilia, S. maltophilia 1203 | Stenotrophomonas maltophilia, S. maltophilia 1208
256 µg/mL: Escherichia coli, E. coli 343 | Klebsiella aerogenes, E. aerogenes 1030 | Klebsiella pneumoniae, K. pneumoniae 76 | Morganella morganii, M. morganii 57 | Morganella morganii, M. morganii 67 | Morganella morganii, M. morganii 458 | Morganella morganii, M. morganii 935 | Proteus mirabilis, P. mirabilis 471 | Proteus mirabilis, P. mirabilis 480 | Proteus mirabilis, P. mirabilis 985 | Proteus mirabilis, P. mirabilis 998 | Providencia stuartii, P. stuartii 306 | S. liquefaciens 55 | Serratia marcescens, S. marcescens 63
